Reference: BindingDB's records for doi:10.1021/ml400486k (University of California, 2014)

Experiment: Inhibition of Bacillus anthracis lethal toxin-induced mouse RAW264.7 cell death preincubated for 1 hr followed by lethal toxin challenge measured after 4 hrs

Row | SMILES | IC50 [nM]
1 | Cc1ccc(/C=N/NC(=O)Nc2c(C)cccc2C)cc1F | 1800
2 | Cc1cccc(C)c1NC(=O)N/N=C/c1ccc(N=[N+]=[N-])cc1F | 2200
3 | C#Cc1ccc(/C=N/NC(=O)Nc2c(C)cccc2C)cc1 | 1700
4 | Cc1cccc(C)c1NC(=O)N/N=C/c1ccc(C(F)(F)F)cc1 | 2600
5 | Cc1cccc(C)c1NC(=O)N/N=C/c1c(F)c(F)c(N=[N+]=[N-])c(F)c1F | > 25000
6 | Cc1cccc(C)c1NC(=O)N/N=C/c1cccs1 | > 25000
7 | Cc1cccc(C)c1NC(=S)N/N=C/c1ccc(Br)cc1 | 1500
8 | Cc1cccc(C)c1NC(=O)N/N=C/c1ccc(C(C)C)cc1 | 6500
9 | Cc1cccc(C)c1NC(=O)N/N=C/c1ccc(Br)cc1 | 1400
10 | C/C(=N\NC(=O)Nc1c(C)cccc1C)c1ccc(Br)cc1 | 2500
11 | Cc1cc(C)c(NC(=O)N/N=C/c2ccc(Br)cc2)c(C)c1 | 12600
12 | Cc1cccc(C)c1NC(=O)N/N=C/c1ccc(F)cc1 | 7000
13 | COc1ccc(/C=N/NC(=O)Nc2c(C)cccc2C)cc1 | > 12500
14 | Cc1cccc(/C=N/NC(=O)Nc2c(C)cccc2C)c1 | 13400
15 | C#CCN(/N=C/c1ccc(Br)cc1)C(=O)Nc1c(C)cccc1C | > 12500
16 | Cc1cccc(C)c1NC(=O)N/N=C/c1ccc(N=[N+]=[N-])cc1 | 2800
17 | Cc1cccc(C)c1NC(=O)N/N=C/c1c(F)cc(Br)cc1F | 4000

Row | SMILES | IC50 [nM]
18 | Cc1cccc(C)c1NC(=O)N/N=C/c1ccc(Br)c(F)c1 | 1500
19 | Cc1cccc(C)c1NC(=O)N/N=C/c1ccc(I)cc1 | 1800
20 | Cc1ccc(/C=N/NC(=O)Nc2c(C)cccc2C)cc1 | 2900
21 | Cc1cccc(C)c1NC(=O)N/N=C/c1ccc(C#N)cc1 | 2500
22 | Cc1cccc(C)c1NC(=O)N/N=C/c1ccc(F)cc1F | 2100
23 | Cc1cccc(C)c1NC(=O)N/N=C/c1ccc(Br)c(Cl)c1 | 3400
24 | Cc1cccc(C)c1NC(=O)N/N=C/c1ccccc1F | 8200
25 | Cc1cccc(C)c1NC(=O)N(C)/N=C/c1ccc(Br)cc1 | 2000
26 | Cc1cccc(C)c1NC(=O)N/N=C/c1ccc(Cl)cc1 | 1700
27 | Cc1cccc(C)c1NC(=O)N/N=C/c1ccc(Br)s1 | 1700
28 | CCc1ccc(/C=N/NC(=O)Nc2c(C)cccc2C)cc1 | 3000
29 | Cc1cccc(C)c1NC(=O)N/N=C/c1ccc(Br)cc1F | 400
30 | Cc1cccc(C)c1/N=C(\N)N/N=C/c1ccc(Br)cc1 | 13800
31 | Cc1cccc(C)c1NC(=O)N/N=C/c1ccc(Br)o1 | > 25000
32 | CCc1cccc(CC)c1NC(=O)N/N=C/c1ccc(Br)cc1 | > 12500
33 | Cc1cccc(C)c1NC(=O)N/N=C/c1ccc(Br)cc1Cl | 3200
